Values quoted from earlier work as cited in patent publication US20160228670A1, “SYSTEM FOR NITRIC OXIDE INHALATION” (ADVANCED […] (AIT) LTD., priority 2013, published 2016).
Where two headings read alike, the source gives them in different places.

Q: With `[N]=O` [NO, nitric oxide] as the compound, how does the “t1/2 of NO to NO2” value (NO concentration in air 1 ppm) read?
A: The value was 3500 min.

Q: And the “t1/2 of NO to NO2” value (NO concentration in air 10 ppm)?
A: Its value is 350 min.

Q: What about the “t1/2 of NO to NO2” value (NO concentration in air 100 ppm) of the same compound?
A: Its value is 35 min.

Q: What about the “t1/2 of NO to NO2” value (NO concentration in air 1,000 ppm) of the same compound?
A: Its value is 3.5 min.

Q: And the “t1/2 of NO to NO2” value (NO concentration in air 10,000 ppm)?
A: Its value is 0.35 min.

Q: And the “t1/2 of NO to NO2” value (NO concentration in air 20,000 ppm)?
A: Its value is 0.175 min.
